Measurements reported in paper PMC10098121, “Amphipathic barbiturates as marine product mimics with cytolytic and immunogenic effects on head and neck squamous cell carcinoma cell lines” (Frontiers in Pharmacology, 2023).

Legend:
UT-SCC-24A = assay: High throughput drug screening (CellTiter-Glo, DSS); format: cell-based, human; conditions: for drug sensitivity score (DSS): 72 h, 10-100,000 nM, myogel, non-irradiated; for delta DSS (ΔDSS): DSS irradiated (2 Gy) minus DSS non-irradiated, >5 synergy, <–5 antagonism
Description: (§1) The MPMs were screened against a panel of […] different cell lines (HSC-3, UT-SCC-8, UT-SCC-24A, UT-SCC-24B, UT-SCC-42A, UT-SCC-42B and NOF) at the High Throughput Biomedicine Unit (HTB) at the Institute for Molecular Medicine Finland (FIMM). On day 1, black-walled 384-well plates were coated with 5 µl diluted myogel (0.5 mg/ml) per well using an automated reagent dispenser (MultiFlo FX, BioTek, Winooski, VT, United States). On day 2, 500 cells per well were seeded in 20 µl of complete media using the MultiFlo FX (BioTek), and the cells were left to adhere overnight. On day 3, the MPMs, cisplatin, DMSO and Benzethonium chloride were added to the cells using an automatic liquid handler (Echo 550, Labcyte Inc., San Jose, CA, United States). Cisplatin and the MPMs were added to yield five different concentrations in a ten-fold dilution series ranging from 10 to 100,000 nM. Each concentration was tested in triplicate wells. DMSO (0.1%) and benzethonium chloride (100 µM) served as negative and positive control, respectively. Three hours later, some of the plates were irradiated with 2 Gy in a gamma irradiator (OB29/4, STS, Braunschweig, Germany). All plates were taken to the irradiation room to ensure similar handling of the plates. 72 h later, the plates were cooled to room temperature before 25 µl of CellTiter-Glo 2.0 reagent (Promega, Madison, WI, USA) was added to each well using the MultiFlo FX (BioTek). Next, the plates were centrifuged for 5 min at 1,000 rpm before the luminescence signal was measured with the PHERAstar FS HT reader (BMG LABTECH GmbH, Ortenberg, Germany). The raw data was analyzed with the Breeze software (https://breeze.fmm.fi), which normalized the luminescence signal from treated cells against the signal from negative and positive control cells to calculate the percentage of inhibition and generate dose-response curves, which were then used to calculate drug sensitivity scores (DSS). The DSS is a parameter which combines the IC50, the slope of the dose-response curve, and the minimum and maximum responses into a single metric, as previously described ([Yadav et al., 2014]). Quality control was performed by calculation of the Z′-factor, which was >0.7 for all cell lines, indicating high quality of the assay ([Zhang et al., 1999]).

HSC-3 = assay: as above; format: cell-based, human; conditions: for drug sensitivity score (DSS): HSC-3, 72 h, 10-100,000 nM, myogel, non-irradiated; for delta DSS (ΔDSS): HSC-3, DSS irradiated (2 Gy) minus DSS non-irradiated, >5 synergy, <–5 antagonism
Description: as §1

human red blood cells = assay: Hemolysis assay; format: cell-based; conditions: for EC50: Homo sapiens, Erythrocyte, 1 h, 37°C, highest concentration tested 500 μM, average of three experiments, read-out: EC50 hemolytic activity against human red blood cells
Description: The hemolytic effect of the MPMs was determined using a hemolysis assay as previously described ([Paulsen et al., 2021]). Briefly, hemolysis was determined using a heparinized fraction (10 IU/mL) of freshly drawn blood. The blood collected in ethylenediaminetetraacetic acid-containing test tubes (Vacutest, KIMA, Arzergrande, Italy) was used for the determination of the hematocrit (hct). The heparinized blood was washed 3 × with pre-warmed phosphate-buffered saline (PBS) and adjusted to a final hct of 4%. MPMs in DMSO (50 mM) were added to a 96-well polypropylene V-bottom plate (NUNC, Fisher Scientific, Oslo, Norway) and serially diluted. The test concentration range was 4–500 μM with DMSO contents ≤1%. A solution of 1% triton X-100 was used as a positive control for 100% hemolysis. As a negative control, a solution of 1% DMSO in PBS was included. Red blood cells (1% v/v final concentration) were added to the well plate and incubated at 37°C and 800 rpm for 1 h. After centrifugation (5 min, 3000 g), 100 μL from each well was transferred to a 96-well flat-bottomed microtiter plate, and absorbance was measured at 545 nm with a microplate reader (VersaMaxTM, Molecular Devices, Sunnyvale, CA, United States). The percentage of hemolysis was calculated as the ratio of the absorbance in the MPM treated and surfactant-treated samples, corrected for the PBS background. Three independent experiments were performed, and EC50 values are presented as averages.

HSC-3 cells = assay: Scratch wound invasion assay (myogel-collagen); format: cell-based, human; conditions: HSC-3, 10 µM, 24 h; control cells approximately 24 h
Description: Two Incucyte image lock 96-well plates (#4379, Sartorius) were coated with 50 µl myogel (0.5 mg/ml) per well. The next day, the media remaining in the wells was removed before HSC-3 cells were seeded at a density of 25,000 cells/well in 100 µl. The cells were left to adhere, and the following day, a scratch was made in the middle of each well using the Incucyte 96-pin WoundMaker tool (Sartorius). The wells were then washed once with media. For the migration assay, the media in each well was then replaced with 100 µl of media containing 0.1, 1 or 10 µM of MPM-2:0 or MPM-4:2. For the invasion assay, the media was replaced by 50 µl of a gel consisting of serum-free media, myogel (2.4 mg/ml), type I rat tail collagen (0.8 mg/ml, Corning, NY, USA) and 0.1, 1 or 10 µM of MPM-2:0 or MPM-4:2. The plate was incubated at 37°C for 1 h to let the gel solidify. Next, 100 µl of media, also containing 0.1, 1 or 10 µM of MPM-2:0 or MPM-4:2 was added on top of the gel. Both the migration and invasion plates were placed in the Incucyte S3 (Sartorius) and imaged at ×10 magnification every 2 hours for 24 h in total. The Incucyte software was used to analyze the relative wound density.

SMILES	drug sensitivity score (DSS) (UT-SCC-24A)	delta DSS (ΔDSS) (UT-SCC-24A)	drug sensitivity score (DSS) (HSC-3)	delta DSS (ΔDSS) (HSC-3)	EC50 (human red blood cells)	wound closure in invasion assay (in words) (HSC-3 cells)	hemolytic activity against red blood cells (in words) (human red blood cells; test range 4–500 μM)
N.N.[Cl][Pt][Cl] [Cisplatin, cisplatin, reference compound]	8,9	-0,9	15,6	-0,8			
NCCN1C(=O)N(CCN)C(=O)C(CCCc2ccccc2)(CCCc2ccccc2)C1=O [MPM-2:0]	18,7	-0,7	19	-0,7	379 µM	induced cell death so quickly that it was not possible to study the effect on migration or invasion	
CN(C)CCCN1C(=O)N(CCCN(C)C)C(=O)C(CCCc2ccccc2)(CCCc2ccccc2)C1=O [MPM-3:2]	17,9	-0,2	17,9	-0,2	> 500 µM		
CN(C)CCCCN1C(=O)N(CCCCN(C)C)C(=O)C(CCCc2ccccc2)(CCCc2ccccc2)C1=O [MPM-4:2]	18,4	-0,6	18,2	0,3	> 500 µM	never managed to close the wound	
NCCCCCCN1C(=O)N(CCCCCCN)C(=O)C(CCCc2ccccc2)(CCCc2ccccc2)C1=O [MPM-6:0]	18,6	-0,2	17,8	0,7	92 µM		the most hemolytic compound
